Laboratory results reported in PubChem BioAssay AID280 (DTP/NCI, 2004).
Where “and” joins values, the source holds several entries; their conditions need not be identical. Identical values can stand only once. Toxic doses and inconclusive results are not listed. How the source made its calls: active means survival T/C of 150% or more; inactive means T/C below 125% in these data.

System: nude mice, LOX melanoma ip, survival T/C
Experiment: NCI In Vivo Anticancer Drug Screen. Data for tumor model Human Amelanotic Melanoma (LOX) (intraperitoneal) in NU/NU BALB/C (nude) mice
Conditions: endpoint: median survival time, schedule: Q04DX003 (ip), higher = longer survival
Method: The antitumor activity of compounds was measured in mice bearing transplantable tumors. Survival or tumor size were measured and the results are expressed as the measurement made in the treated group (T) divided by the measurement made in the vehicle treated control group (C). The tumor model used in this assay is Human Amelanotic Melanoma (LOX) (intraperitoneal) in NU/NU BALB/C (nude) mice

[1] = dose: 25.0 mg/kg/injection, vehicle: saline with Tween-80
[2] = dose: 50.0 mg/kg/injection, vehicle: saline with Tween-80
[3] = dose: 100.0 mg/kg/injection, vehicle: saline with Tween-80
[4] = dose: 200.0 mg/kg/injection, vehicle: saline with Tween-80
[5] = dose: 6.25 mg/kg/injection, vehicle: suspension in saline
[6] = dose: 25.0 mg/kg/injection, vehicle: suspension in saline
[7] = dose: 50.0 mg/kg/injection, vehicle: suspension in saline
[8] = dose: 100.0 mg/kg/injection, vehicle: suspension in saline
[9] = dose: 75.0 mg/kg/injection, vehicle: saline with Tween-80
[10] = dose: 150.0 mg/kg/injection, vehicle: saline with Tween-80
[11] = dose: 300.0 mg/kg/injection, vehicle: saline with Tween-80
[12] = dose: 600.0 mg/kg/injection, vehicle: saline with Tween-80
[13] = dose: 1200.0 mg/kg/injection, vehicle: saline with Tween-80

Measured: T/C

CC1OC2CC(O)C1(O)C1=C2C(O)=C(C(N)=O)C(=N)C1=O (configuration not stated)
inactive: dose: 0.32 mg/kg/injection, vehicle: saline + Tween-80 + alcohol 106 % of control | dose: 0.63 mg/kg/injection, vehicle: saline + Tween-80 + alcohol 99 % of control | dose: 1.25 mg/kg/injection, vehicle: saline + Tween-80 + alcohol 106 % of control | dose: 2.5 mg/kg/injection, vehicle: saline + Tween-80 + alcohol 102 % of control | dose: 5.0 mg/kg/injection, vehicle: saline + Tween-80 + alcohol 102 % of control

O=C1C=CC2OC(c3ccccc3)C(O)C2O1 (configuration not stated)
inactive: dose: 12.5 mg/kg/injection, vehicle: DMSO 105 % of control | dose: 25.0 mg/kg/injection, vehicle: DMSO 103 % of control | dose: 50.0 mg/kg/injection, vehicle: DMSO 103 % of control

COc1cc2cc(c1Cl)N(C)C(=O)C[C@H](OC(=O)[C@H](C)N(C)C(C)=O)[C@]1(C)O[C@H]1[C@H](C)[C@@H]1C[C@@](O)(NC(=O)O1)[C@H](OC)C=C/C=C(\C)C2
inactive: dose: 0.4 mg/kg/injection, vehicle: Klucel (hydroxypropylcellulose) (HPC) 95 % of control
active: dose: 0.07 mg/kg/injection, vehicle: Klucel (hydroxypropylcellulose) (HPC) 304 % of control | dose: 0.12 mg/kg/injection, vehicle: Klucel (hydroxypropylcellulose) (HPC) 304 % of control | dose: 0.2 mg/kg/injection, vehicle: Klucel (hydroxypropylcellulose) (HPC) 304 % of control and 323 % of control | dose: 0.33 mg/kg/injection, vehicle: Klucel (hydroxypropylcellulose) (HPC) 304 % of control | dose: 0.56 mg/kg/injection, vehicle: Klucel (hydroxypropylcellulose) (HPC) 304 % of control

Cc1cc2c(=O)cc(-c3ccccc3)oc2c(C(=O)O)c1C
inactive: dose: 62.5 mg/kg/injection, vehicle: saline with Tween-80 95 % of control | dose: 125.0 mg/kg/injection, vehicle: saline with Tween-80 94 % of control | dose: 250.0 mg/kg/injection, vehicle: saline with Tween-80 90 % of control

CCC(=O)Sc1ccccc1C(=O)Nc1ccc(Cl)cc1
inactive: [1] 99 % of control | [2] 107 % of control | [3] 110 % of control | [4] 113 % of control

COc1ccc(C(C)c2cc3c(cc2OC)OCO3)cc1 (configuration not stated)
inactive: [1] 114 % of control
active: [3] 158 % of control | [4] 198 % of control

CCOC(=O)NC1CCc2cc(OC)c(OC)c(OC)c2-c2ccc(OC)c(=O)cc21 (configuration not stated)
active: dose: 2.5 mg/kg/injection, vehicle: Klucel (hydroxypropylcellulose) (HPC) 154 % of control | dose: 5.0 mg/kg/injection, vehicle: Klucel (hydroxypropylcellulose) (HPC) 154 % of control | dose: 10.0 mg/kg/injection, vehicle: Klucel (hydroxypropylcellulose) (HPC) 178 % of control | dose: 20.0 mg/kg/injection, vehicle: Klucel (hydroxypropylcellulose) (HPC) 214 % of control

CNC(=O)c1cccc2c(Nc3ccc(NS(C)(=O)=O)cc3OC)c3cccc(C)c3nc12
active: dose: 15.0 mg/kg/injection, vehicle: suspension in saline 158 % of control | [6] 178 % of control | dose: 41.66 mg/kg/injection, vehicle: suspension in saline 170 % of control | dose: 69.44 mg/kg/injection, vehicle: suspension in saline 161 % of control
inactive: [5] 121 % of control

O=S(=O)(O)c1cc(N=C=S)ccc1/C=C/c1ccc(N=C=S)cc1S(=O)(=O)O
inactive: dose: 3.75 mg/kg/injection, vehicle: saline 103 % of control | dose: 7.5 mg/kg/injection, vehicle: saline 104 % of control | dose: 15.0 mg/kg/injection, vehicle: saline 90 % of control | dose: 30.0 mg/kg/injection, vehicle: saline 94 % of control

CNC(=O)OCc1nc(SC)n(C)c1COC(=O)NC
active: dose: 51.2 mg/kg/injection, vehicle: water 179 % of control | dose: 57.5 mg/kg/injection, vehicle: saline 156 % of control | dose: 76.7 mg/kg/injection, vehicle: water 229 % of control | dose: 115.0 mg/kg/injection, vehicle: saline 234 % of control | dose: 115.0 mg/kg/injection, vehicle: water 354 % of control

CCC1OC(OC)C=CC1=O (configuration not stated)
inactive: [6] 96 % of control | [7] 104 % of control | [8] 113 % of control

CCC(NC(N)=O)C(CC)NC(N)=O (configuration not stated)
inactive: dose: 3.13 mg/kg/injection, vehicle: saline with Tween-80 103 % of control | dose: 6.25 mg/kg/injection, vehicle: saline with Tween-80 109 % of control | [1] 105 % of control

O=C1CC2(C(=O)N1CN1CCOCC1)c1ccccc1-c1ccccc12
inactive: dose: 75.0 mg/kg/injection, vehicle: Klucel (hydroxypropylcellulose) (HPC) 102 % of control | dose: 150.0 mg/kg/injection, vehicle: Klucel (hydroxypropylcellulose) (HPC) 98 % of control | dose: 300.0 mg/kg/injection, vehicle: Klucel (hydroxypropylcellulose) (HPC) 103 % of control | dose: 600.0 mg/kg/injection, vehicle: Klucel (hydroxypropylcellulose) (HPC) 120 % of control

CC(=O)Nc1ccc(Nc2ccc(C(=C3C=CC(=[N+](C)CCC#N)C=C3)c3ccc(N(C)CCC#N)cc3)cc2)cc1
inactive: [5] 101 % of control | dose: 12.5 mg/kg/injection, vehicle: suspension in saline 111 % of control | [6] 116 % of control | dose: 30.0 mg/kg/injection, vehicle: suspension in saline 120 % of control | [7] 111 % of control and 121 % of control | dose: 83.0 mg/kg/injection, vehicle: suspension in saline 110 % of control | [8] 124 % of control

COc1cc(C2CC(C)(O)Oc3cc4c(cc32)OCO4)cc(OC)c1OC (configuration not stated)
inactive: [2] 109 % of control and 98 % of control | [3] 96 % of control | [4] 93 % of control

O=C(NNC(=O)c1cccc(C(=O)NNC(=O)c2ccc(Cl)c(Cl)c2)n1)c1ccc(Cl)c(Cl)c1
inactive: [1] 103 % of control | [2] 119 % of control | [9] 104 % of control | [3] 119 % of control | [10] 110 % of control | [4] 122 % of control | dose: 400.0 mg/kg/injection, vehicle: saline with Tween-80 116 % of control
active: [11] 204 % of control | [12] 167 % of control | [13] 164 % of control

Cc1cc(Br)c2nsnc2c1[N+](=O)[O-]
inactive: [9] 112 % of control | [10] 103 % of control | [11] 112 % of control | [12] 124 % of control | [13] 114 % of control

NCCCC(N)(C(=O)O)C(F)F (configuration not stated)
inactive: dose: 75.0 mg/kg/injection, vehicle: distilled water + alcohol 112 % of control | dose: 150.0 mg/kg/injection, vehicle: distilled water + alcohol 111 % of control | dose: 300.0 mg/kg/injection, vehicle: distilled water + alcohol 101 % of control | dose: 600.0 mg/kg/injection, vehicle: distilled water + alcohol 97 % of control | dose: 1200.0 mg/kg/injection, vehicle: distilled water + alcohol 106 % of control
